The values that follow come from paper PMC6826021 (Disease Models & Mechanisms, 2019).

One data set concerns Etx. Particulars: cited from earlier work.
Data set [1] has as its system Ca2+ influx in Etx-treated MDCK cells. Type of data set: cell-based, canine.
Data set [2] has as its system Etx-treated MDCK cells. In kind it is cell-based, canine.
In another data set the test system is C57BL/6 mice. Particulars: mouse, in vivo.
Data set [3] relates to HMGB1 translocation in Etx-treated MDCK cells. Type of data set: cell-based, canine.
Data set [4] has as its target Etx pore formation in DPPC/cholesterol liposomes (Clostridium perfringens, UniProt Q02307). In kind it is biochemical.
In data set [5] the target is Etx monomer binding to MDCK cells (Clostridium perfringens, UniProt Q02307). Type of data set: cell-based.
Sequence of Etx monomer binding to MDCK cells (Q02307 46-306 limits assumed): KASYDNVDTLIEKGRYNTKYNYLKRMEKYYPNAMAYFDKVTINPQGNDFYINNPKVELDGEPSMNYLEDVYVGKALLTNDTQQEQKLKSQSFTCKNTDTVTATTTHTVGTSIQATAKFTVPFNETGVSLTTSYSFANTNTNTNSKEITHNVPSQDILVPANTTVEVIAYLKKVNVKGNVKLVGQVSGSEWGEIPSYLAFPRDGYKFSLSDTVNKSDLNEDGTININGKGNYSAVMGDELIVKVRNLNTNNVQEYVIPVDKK
Data set [6] deals with Etx heptamer (oligomerization) (Clostridium perfringens, UniProt Q02307). In kind it is cell-based.
Sequence of Etx heptamer (oligomerization) (Q02307 46-306 limits assumed): as above
The subject of data set [7] is ROS in Etx-treated MDCK cells. Type of data set: cell-based, canine.
The test system of data set [8] is Etx-challenged C57BL/6 mice. The settings on record: mouse, in vivo.
Data set [9] deals with Etx-treated MDCK cells. Type of data set: cell-based, canine. The source holds these as a separate data set.
The next data set addresses Etx-Etx monomers (Clostridium perfringens, UniProt Q02307). In kind it is binding.
Data set [10] deals with mitochondrial membrane potential in Etx-treated MDCK cells. In kind it is cell-based, canine.

Sequence of Etx-Etx monomers (Q02307 46-306 limits assumed): as above
Sequence of Etx pore formation in DPPC/cholesterol liposomes (Q02307 46-306 limits assumed): as above

With `c1ccc2c(c1)Cc1cccc3noc-2c13` [6H-anthra[1,9-cd]isoxazol], the “inhibition of Etx binding or oligomerization” value in the data set with Etx is given as “none of them could inhibit”.

Take `O=C(O)CN(CCOCCOCCN(CC(=O)O)CC(=O)O)CC(=O)O` [EGTA, reference compound]: the “Ca2+ influx, Fluo-4 AM intensity by FACS” value in data set [1] was “blocked the Etx-invoked influx”.

For the molecule `CCCOC1O[C@H](CO)[C@@H](O)[C@H](O)[C@H]1O` (stereo partly drawn) [Glycoside-2], in the data set on Etx-treated MDCK cells [2], the “protection of Etx-treated MDCK cells” value is on record as “concentration-dependent protection” and the “survival of Etx-challenged MDCK cells compared to Etx” value (“survival … compared to Etx” for short) is recorded as “greater than 50%”.

In the case of `CCCCOC1O[C@H](CO)[C@@H](O)[C@H](O)[C@H]1O` (stereo partly drawn) [Glycoside-4], the “mortality or clinical signs (seizures, convulsions and depression)” value in the data set with C57BL/6 mice is reported as “No mortality or clinical signs”. Moreover, the HMGB1 localization result in [3] is “largely remained in the nucleus”. In addition, the “effect on pore formation in Etx-treated liposomes” value in data set [4] was “tearings disappeared”. Moreover, in data set [5], the “effect on binding of Etx monomer to the cell membrane” value is recorded as “no effect”. Besides, in data set [1], the “Ca2+ entry, Fluo-4 AM fluorescence microscopy” value is on record as “complete reduction in Ca^2+ entry” and the “Ca2+ influx, Fluo-4 AM intensity by FACS” value is listed as “drastic reduction of Fluo-4 AM intensity”. Further, the “effect on Etx heptamer (oligomer) intensity” value in [6] was “substantial decrease in heptamer intensity”. In addition, in data set [7], the “ROS levels, DCFDA” value is “decreased levels of ROS”. Also, in data set [8], the mice protected is listed as 60%, the “mice with improved liver (H&E)” value was 60% and the “mice with protected brain structures (H&E)” value came out at 60%. In data set [8] (ip, 50 mg/kg), this molecule displayed a death rate of 40%. Further, in the data set on Etx-treated MDCK cells [9], the “PI+ cells” value is “drastic reduction in PI^+ cells” and the “annexin V+/PI+ cells (phosphatidylserine exposure)” value is “absence of annexin V^+/PI^+ cells”. Also, at Etx-Etx monomers, the “Etx (protein-protein) interaction in SPR” value is reported as “no Etx (protein-protein) interaction could be seen”. The “mitochondrial membrane potential (ΨΔm), JC-1” value in [10] is “could stabilize ΨΔm”. Besides, in the data set on Etx-treated MDCK cells [2], the “cell survival upon Etx challenge (MTT), pre- and post-treatment” value is listed as “increase in cell survival”; the “protection of Etx-treated MDCK cells” value is recorded as “highest survival efficiency”; the “survival … compared to Etx” value is “greater than 50%”.

Take `CCCCCCOC1O[C@H](CO)[C@@H](O)[C@H](O)[C@H]1O` (stereo partly drawn) [Glycoside-6]: in the data set on Etx-treated MDCK cells [2], the “protection of Etx-treated MDCK cells” value is “concentration-dependent protection” and the “survival … compared to Etx” value is listed as “greater than 50%”.

For `c1ccc2nc3occc3cc2c1` [furo[2,3-b]quinoline], the “inhibition of Etx binding or oligomerization” value with Etx is given as “none of them could inhibit”.

Regarding `C[C@H](CCC(=O)O)C[C@H](C)C[C@H](C)C(=O)/C=C(\O)[C@H](C)C[C@H](C)C/C=C/[C@@H](C)[C@@H](O)[C@@H](C)[C@@H](O)C[C@@H]1CC[C@@](C)([C@H]2CC[C@@](C)([C@@H](C)O)O2)O1` [ionomycin, reference compound], the “Ca2+ influx, Fluo-4 AM intensity by FACS” value in data set [1] is recorded as “Clear intensity shift”.
